Laboratory results as given in patent publication US9187472B2 (AbbVie Inc., priority 2012, dated 2015).
pIC50: −log10 of the molar value.

Columns and labels:
[1] = target: NAMPT (human, recombinant, C-terminally His-tagged) (Homo sapiens, UniProt P43490); assay: Time-Resolved Fluorescence Resonance Energy Transfer (TR-FRET) Binding Assay of NAMPT; details: without substrates; 6.8 nM NAMPT, 200 nM probe, 3 hours equilibration
Summary of the method: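 Competitive binding against an Oregon Green 488 tracer (200 nM), 6.8 nM His-tagged enzyme, 1 nM Tb antibody, 2% DMSO, 3 h at RT. IC50 derived from TR-FRET ratios.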

NAMPT = NAMPT (Homo sapiens, UniProt P43490); assay: TR-FRET Binding Assay of NAMPT with PRPP; details: with 200 μM PRPP and 2.5 mM ATP; 2 nM NAMPT, 2 nM probe, 16 hours equilibration
Summary of the method: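 Read-out is TR-FRET after a 16 h equilibration allowing possible compound modification by the enzyme. Final mix: 2 nM NAMPT, 2 nM probe, 1 nM Tb-anti-His antibody, 200 μM PRPP, 2.5 mM ATP, 2% DMSO.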

PC3 cells = assay: NAMPT Cell Proliferation Assay; assay type: cell-based; details: Homo sapiens, PC-3, 120 h, 5 days incubation, cell viability by Cell Titer Glo
Summary of the method: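 Cell Titer Glo viability after 5-day exposure (37° C, 5% CO2); PC3, 500 cells/well, RPMI + 10% heat-inactivated FBS, overnight attachment before dosing. Dose range 10 μM to 1×10^−5 μM, 10-fold steps. IC50 = sigmoidal fit of % inhibition.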

NAMPT (human, recombinant, C-terminally His-tagged), sequence (P43490 whole entry): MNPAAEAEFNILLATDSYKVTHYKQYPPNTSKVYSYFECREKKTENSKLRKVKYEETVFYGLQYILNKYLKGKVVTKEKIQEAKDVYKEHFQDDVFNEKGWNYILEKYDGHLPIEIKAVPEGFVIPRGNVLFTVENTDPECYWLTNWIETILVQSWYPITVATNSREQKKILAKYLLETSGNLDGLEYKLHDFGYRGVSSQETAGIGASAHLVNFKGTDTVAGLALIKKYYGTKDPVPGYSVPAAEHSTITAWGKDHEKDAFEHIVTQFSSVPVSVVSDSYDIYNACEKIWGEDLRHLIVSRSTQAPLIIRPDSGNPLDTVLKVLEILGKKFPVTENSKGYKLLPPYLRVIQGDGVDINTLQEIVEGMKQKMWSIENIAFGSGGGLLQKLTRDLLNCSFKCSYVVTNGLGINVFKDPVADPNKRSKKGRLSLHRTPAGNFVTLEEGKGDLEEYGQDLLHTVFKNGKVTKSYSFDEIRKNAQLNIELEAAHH
NAMPT, sequence (P43490 whole entry): as above

Row | Structure (SMILES) | pIC50 [1] | pIC50 (NAMPT) | pIC50 (PC3 cells)
1 | CC(C)(O)Cn1cc(-c2ccc(C(=O)NCc3ccn4ccnc4c3)cc2)cn1 [Example 298, 4-[1-(2-hydroxy-2-methylpropyl)-1H-pyrazol-4-yl]-N-(imidazo[1,2-a]pyridin-7-ylmethyl)benzamide] | 5.47 | 9.25 | 5.63
2 | O=C(NCc1ccn2ccnc2c1)c1ccc(C2CCN(C(=O)c3c(F)cccc3F)CC2)cc1 [Example 700, 4-[1-(2,6-difluorobenzoyl)piperidin-4-yl]-N-(imidazo[1,2-a]pyridin-7-ylmethyl)benzamide] | 7.16 | 8.99 | 8.49
3 | O=C(NCc1ccn2ccnc2c1)c1ccc(C2CCN(C(=O)CC(F)(F)F)C2)s1 (stereo not drawn) [Example 540, N-(imidazo[1,2-a]pyridin-7-ylmethyl)-5-[1-(3,3,3-trifluoropropanoyl)pyrrolidin-3-yl]thiophene-2-carboxamide] | 6.58 | 9.52 | 7.13
4 | Cc1ccc(C(=O)N2CC(c3ccc(C(=O)NCc4ccn5ccnc5c4)cc3)C2)cc1 [Example 650, N-(imidazo[1,2-a]pyridin-7-ylmethyl)-4-[1-(4-methylbenzoyl)azetidin-3-yl]benzamide] | 6.82 | 8.95 | 7.23
5 | CC(C)(C)OC(=O)N1CCC(c2ccc(NC(=O)NCc3ccn4ccnc4c3)cc2)C1 (stereo not drawn) [Example 302, tert-butyl 3-(4-{[(imidazo[1,2-a]pyridin-7-ylmethyl)carbamoyl]amino}phenyl)pyrrolidine-1-carboxylate] | 6.80 | 9.36 | 7.71
6 | CCC(C)(C)C(=O)N1CCC(c2ccc(C(=O)NCc3ccn4ccnc4c3)s2)C1 (stereo not drawn) [Example 791, 5-[1-(2,2-dimethylbutanoyl)pyrrolidin-3-yl]-N-(imidazo[1,2-a]pyridin-7-ylmethyl)thiophene-2-carboxamide] | 7.33 | 8.94 | 9.05
7 | CC(C)(O)CC(=O)N1CCC(c2ccc(NC(=O)NCc3ccn4ccnc4c3)cc2)CC1 [Example 226, 1-{4-[1-(3-hydroxy-3-methylbutanoyl)piperidin-4-yl]phenyl}-3-(imidazo[1,2-a]pyridin-7-ylmethyl)urea] | 6.95 | 9.22 | 8.14
8 | CC(C)Cn1cc(-c2ccc(C(=O)NCc3ccc4nccn4c3)s2)cn1 [Example 75, N-(imidazo[1,2-a]pyridin-6-ylmethyl)-5-[1-(2-methylpropyl)-1H-pyrazol-4-yl]thiophene-2-carboxamide] | 7.91 | 9.35 | 8.83
9 | O=C(NCc1ccn2ccnc2c1)Nc1ncc(C(=O)N2CCCCC2)s1 [Example 404, 1-(imidazo[1,2-a]pyridin-7-ylmethyl)-3-[5-(piperidin-1-ylcarbonyl)-1,3-thiazol-2-yl]urea] | 5.59 | 9.06 | 5.03
10 | O=C(Nc1ccc(C2CCN(C(=O)CC3CCOC3)CC2)cc1)Nc1ccc2nccn2c1 (stereo not drawn) [Example 110, 1-imidazo[1,2-a]pyridin-6-yl-3-{4-[1-(tetrahydrofuran-3-ylacetyl)piperidin-4-yl]phenyl}urea] | 6.37 | 9.76 | 6.69
11 | O=C(NCc1ccn2ccnc2c1)c1ccc(C2CCN(C(=O)Cc3ccccc3)CC2)cc1 [Example 707, N-(imidazo[1,2-a]pyridin-7-ylmethyl)-4-[1-(phenylacetyl)piperidin-4-yl]benzamide] | 6.56 | 9.20 | 7.13
12 | O=C(NCc1ccn2ccnc2c1)Nc1ccc(C2CCN(C(=O)C3CCOCC3)C2)cc1 (stereo not drawn) [Example 389, 1-(imidazo[1,2-a]pyridin-7-ylmethyl)-3-{4-[1-(tetrahydro-2H-pyran-4-ylcarbonyl)pyrrolidin-3-yl]phenyl}urea] | 6.23 | 9.21 | 7.11
13 | O=C(CC1CCCO1)Nc1ccc(C(=O)NCc2ccc3nccn3c2)cc1 (stereo not drawn) [Example 77, N-(imidazo[1,2-a]pyridin-6-ylmethyl)-4-[(tetrahydrofuran-2-ylacetyl)amino]benzamide] | 7.25 | 8.54 | 7.85
14 | CC(C)C(=O)NC1(c2ccc(C(=O)NCc3ccn4ccnc4c3)s2)CCC1 [Example 468, N-(imidazo[1,2-a]pyridin-7-ylmethyl)-5-{1-[(2-methylpropanoyl)amino]cyclobutyl}thiophene-2-carboxamide] | < 5.00 | 9.01 | 5.53
15 | O=C(NCc1ccn2ccnc2c1)c1ccc(C2CN(C(=O)c3cccc(F)c3)C2)cc1 [Example 640, 4-[1-(3-fluorobenzoyl)azetidin-3-yl]-N-(imidazo[1,2-a]pyridin-7-ylmethyl)benzamide] | 6.77 | 9.09 | 7.30
16 | O=C(CC1CCOCC1)Nc1ccc(C(=O)NCc2ccn3ccnc3c2)cc1 [Example 208, N-(imidazo[1,2-a]pyridin-7-ylmethyl)-4-[(tetrahydro-2H-pyran-4-ylacetyl)amino]benzamide] | 6.39 | 9.77 | 7.07
17 | Cc1cc(CC(=O)N(C[C@H]2CCCO2)c2ncc(C(=O)NCc3ccn4ccnc4c3)s2)nn1C [Example 197, 2-{[(1,5-dimethyl-1H-pyrazol-3-yl)acetyl][(2R)-tetrahydrofuran-2-ylmethyl]amino}-N-(imidazo[1,2-a]pyridin-7-ylmethyl)-1,3-thiazole-5-carboxamide] | 5.80 | 9.30 | 7.60
18 | CC(C)C(=O)N1CCC(c2ccc(C(=O)NCc3ccn4ccnc4c3)s2)CC1 [Example 259, N-(imidazo[1,2-a]pyridin-7-ylmethyl)-5-[1-(2-methylpropanoyl)piperidin-4-yl]thiophene-2-carboxamide] | 7.58 | 9.77 | 8.60
19 | CC(C)OCCNC(=O)N(CC1CCOCC1)c1ncc(C(=O)NCc2ccc3nccn3c2)s1 [Example 152, N-(imidazo[1,2-a]pyridin-6-ylmethyl)-2-[{[2-(propan-2-yloxy)ethyl]carbamoyl}(tetrahydro-2H-pyran-4-ylmethyl)amino]-1,3-thiazole-5-carboxamide] | 5.44 | 8.16 | 7.55
20 | O=C(Nc1ccc(NC(=O)C2CCS(=O)(=O)CC2)cc1)Nc1ccc2nccn2c1 [Example 49] | 6.35 | 9.50 | 5.15
21 | CC[C@H](C)C(=O)N1CC(Oc2ccc(C(=O)NCc3ccn4ccnc4c3)cc2)C1 [Example 559, N-(imidazo[1,2-a]pyridin-7-ylmethyl)-4-({1-[(2S)-2-methylbutanoyl]azetidin-3-yl}oxy)benzamide] | 6.17 | 9.65 | 7.03
22 | O=C(NCCCCC1CCN(C(=O)C2CCOCC2)CC1)Nc1ccc2nccn2c1 [Example 69, 1-imidazo[1,2-a]pyridin-6-yl-3-{4-[1-(tetrahydro-2H-pyran-4-ylcarbonyl)piperidin-4-yl]butyl}urea] | 6.17 | 9.57 | 7.78
23 | COc1cccc(C(=O)N2CCC(c3ccc(C(=O)NCc4ccn5ccnc5c4)s3)C2)c1 (stereo not drawn) [Example 759, N-(imidazo[1,2-a]pyridin-7-ylmethyl)-5-[1-(3-methoxybenzoyl)pyrrolidin-3-yl]thiophene-2-carboxamide] | 7.55 | 9.10 | 8.78
